Test results: PubChem BioAssay (NCI)
Several values for one entry are separate records, joined by “and”; a condition that tells them apart may be missing. Identical values can stand only once.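 Method: 48-hour compound exposure of cells in 96-well plates, five concentrations, linear interpolation of endpoints. GI50 is the concentration that inhibits growth by half. The concentration for full growth arrest is given as TGI.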

Legend:
Assay in all cases: NCI-60 cell line screen, 48 h
[1] = test system: A498 renal
[2] = test system: ACHN renal
[3] = test system: BT-549 breast
[4] = test system: CCRF-CEM leukemia
[5] = test system: K-562 leukemia
[6] = test system: NCI-H23 lung
[7] = test system: NCI-H522 lung
[8] = test system: SF-295 CNS
[9] = test system: SF-539 CNS
[10] = test system: SK-MEL-5 melanoma

| SMILES | TGI [1] | TGI [2] [µM] | TGI [3] [µM] | TGI [4] [µM] | TGI [5] [µM] | TGI [6] [µM] | TGI [7] [µM] | TGI [8] [µM] | TGI [9] | TGI [10] [µM] | GI50 [1] | GI50 [2] | GI50 [3] | GI50 [4] | GI50 [5] | GI50 [6] | GI50 [7] [µM] | GI50 [8] | GI50 [9] | GI50 [10] |
| --- | --- | --- | --- | --- | --- | --- | --- | --- | --- | --- | --- | --- | --- | --- | --- | --- | --- | --- | --- | --- |
| COc1ccc(OC)c(/C=C/c2ccnc3ccccc23)c1 | 3.8 µM | 18.8 | 14.4 | 5.91 | 2.06 | 5.72 | 1.79 | 4.89 | 0.671 µM | 12.9 |  |  |  |  |  |  |  |  |  |  |
| COc1cc(C2CC(=O)Nc3c2c(C)nn3-c2nc3ccccc3[nH]2)cc(OC)c1O (stereo unspecified) | 6.1 µM | > 28.6 | 6.09 | > 100 | > 100 | 11.2 | 5.78 | 3.71 | 13.5 µM | 3.62 | 1.86 µM | 3.11 µM | 2.6 µM | 1.34 µM | 4.67 µM | 3.15 µM | 2.38 | 1.33 µM | 3.1 µM | 1.83 µM |
| CN(C)CCOc1ccccc1NC1=C(Cl)C(=O)C(Nc2ccccc2OCCN(C)C)=C(Cl)C1=O | > 53.8 µM | 1.6 | > 49.7 |  | 5.41 | 22.6 | 1.14 | > 65.9 | > 48.3 µM | > 23.8 | > 38.2 µM | 0.494 µM | 20.7 µM | 0.966 µM | 2.26 µM | 6.47 µM | 0.502 | > 38.4 µM | 16.4 µM |  |
| O=[N+]([O-])c1ccc2c(c1)C(c1ccccc1Cl)=Nc1c(n[nH]c1-c1cccnc1)N2 | > 25 µM | > 25 | > 25 | > 25 | > 25 | > 25 | > 25 | > 25 | > 25 µM | > 25 | > 20.3 µM | > 25 µM | > 25 µM | > 25 µM | > 25 µM | > 25 µM | > 25 | > 25 µM | > 25 µM | > 25 µM |
| CN(C)C=Nc1c(I)cc(I)c(CCC(=O)O)c1I | > 100 µM | > 100 | > 100 | > 100 | > 100 | > 100 | > 100 | > 100 | > 100 µM | > 100 | 81.6 µM | > 100 µM | > 100 µM | > 100 µM | 59.3 µM | > 100 µM | > 100 | > 100 µM | > 100 µM | > 100 µM |
| CCOC(=O)c1cc(NS(=O)(=O)c2ccc(C)cc2)cc(C(=O)OCC)c1 | > 100 µM | > 100 | > 100 | > 100 | > 100 | > 100 | > 100 | > 100 | > 100 µM | > 100 | 34.3 µM | 42.3 µM | 34.8 µM | 37.2 µM | 40.2 µM | 38.5 µM | 34.5 | 44.9 µM | 49.4 µM | 31 µM |
| COC(=O)[C@@H](C)C[C@H](Cc1ccccc1)NC(=O)c1csc([C@@H](C[C@H](C(C)C)N(C)C(=O)[C@@H](NC(=O)[C@H]2CCCN2C)C2CC2)OC(C)=O)n1 | 0.00817 µM and < 0.0025 µM | > 25 |  | > 25 | > 25 | > 25 | 0.000814 | > 25 | 0.00659 µM and < 0.0025 µM |  | 0.00147 µM and < 0.0025 µM | 0.00419 µM and 0.0025 µM | 0.000664 µM and < 0.0025 µM | 0.000586 µM and 0.0025 µM | 0.000352 µM and 0.0025 µM | 0.00365 µM and 0.0025 µM | 0.000223 | 0.00302 µM and 0.0025 µM | 0.00172 µM and < 0.0025 µM | 0.000329 µM and < 0.0025 µM |
| COc1ccc(-c2cn(-c3cc(OC)c(OC)c(OC)c3)c(=O)[nH]2)cc1OC | > 100 µM | > 100 | > 100 | > 100 | > 100 | > 100 | > 100 | > 100 | > 100 µM | > 100 | 80.3 µM | > 100 µM | > 100 µM | > 100 µM | > 100 µM | > 100 µM | > 100 | > 100 µM | > 100 µM | > 100 µM |
| O=c1oc2ccc(Br)cc2c(=O)n1-c1ccc(Cl)cc1F | 0.772 µM | 12.9 | 2.49 | 11.7 | > 100 | 4.77 | 7.69 | 3.54 | 6.4 µM | 1.08 | 0.194 µM | 1.22 µM | 0.48 µM | 2.38 µM | 0.646 µM | 1.03 µM | 0.586 | 1.78 µM | 0.854 µM | 0.323 µM |
